The subject of the assay is P388 leukemia ip, CD2F1 mice, survival T/C. Nature of the assay: NCI In Vivo Anticancer Drug Screen. Data for tumor model P388 Leukemia (intraperitoneal) in CD2F1 (CDF1) mice. The following applies: endpoint: median survival time, higher = longer survival. An outline of the steps:
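Mice carrying the transplanted tumor received test compound or vehicle. Survival was recorded in each group, and the value is the treated-group measurement divided by that of the vehicle-treated control group.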

[1] abbreviates: dose: 6.25 mg/kg/injection, schedule: Q01DX009 (ip), vehicle: saline.
Setting [2] is: dose: 12.5 mg/kg/injection, schedule: Q01DX009 (ip), vehicle: saline with Tween-80.
[3] abbreviates: dose: 25.0 mg/kg/injection, schedule: Q01DX009 (ip), vehicle: saline with Tween-80.
The mark [4] stands for this setting: dose: 50.0 mg/kg/injection, schedule: Q01DX005 (ip), vehicle: Klucel (hydroxypropylcellulose) (HPC).
Where [5] appears, read: dose: 100.0 mg/kg/injection, schedule: Q01DX005 (ip), vehicle: Klucel (hydroxypropylcellulose) (HPC).
The mark [6] stands for this setting: dose: 200.0 mg/kg/injection, schedule: Q01DX005 (ip), vehicle: Klucel (hydroxypropylcellulose) (HPC).
[7] abbreviates: dose: 50.0 mg/kg/injection, schedule: Q01DX005 (ip), vehicle: saline with Tween-80.
Where [8] appears, read: dose: 100.0 mg/kg/injection, schedule: Q01DX005 (ip), vehicle: saline with Tween-80.
[9] abbreviates: dose: 200.0 mg/kg/injection, schedule: Q01DX005 (ip), vehicle: saline with Tween-80.
[10] abbreviates: dose: 50.0 mg/kg/injection, schedule: Q01DX009 (ip), vehicle: Klucel (hydroxypropylcellulose) (HPC).
Setting [11] is: dose: 100.0 mg/kg/injection, schedule: Q01DX009 (ip), vehicle: Klucel (hydroxypropylcellulose) (HPC).

“And” between values parts separate entries of the source, which are not always exact repeats. Identical values can stand only once. Inconclusive results and toxic doses are left out.

Consider `CC[n+]1c(-c2ccccc2)c2cc(N)ccc2c2ccc(N)cc21`, for which the T/C (dose: 0.39 mg/kg/injection, schedule: Q04DX003 (ip), vehicle: saline) was 101 % of control; the T/C (dose: 0.39 mg/kg/injection, schedule: Q04DX003 (ip), vehicle: water) is 103 % of control; the T/C (dose: 0.78 mg/kg/injection, schedule: Q04DX003 (ip), vehicle: saline) is 100 % of control; the T/C (dose: 0.78 mg/kg/injection, schedule: Q04DX003 (ip), vehicle: water) was 104 % of control; the T/C (dose: 1.56 mg/kg/injection, schedule: Q01DX009 (ip), vehicle: saline) is 150 % of control; the T/C (dose: 1.56 mg/kg/injection, schedule: Q04DX003 (ip), vehicle: saline) was 106 % of control. Besides, the T/C reads like this: (dose: 1.56 mg/kg/injection, schedule: Q04DX003 (ip), vehicle: water) 113 % of control; (dose: 3.13 mg/kg/injection, schedule: Q01DX009 (ip), vehicle: saline) 153 % of control; (dose: 3.13 mg/kg/injection, schedule: Q01DX009 (ip), vehicle: water) 161 % of control; (dose: 3.13 mg/kg/injection, schedule: Q04DX003 (ip), vehicle: saline) 114 % of control; (dose: 3.13 mg/kg/injection, schedule: Q04DX003 (ip), vehicle: water) 123 % of control; under setting [1], 170 % of control. Moreover, the T/C by setting is: (dose: 18.0 mg/kg/injection, schedule: Q04DX003 (ip), vehicle: saline sonified) 150 % of control; (dose: 25.0 mg/kg/injection, schedule: Q04DX003 (ip), vehicle: saline) 117 % of control; (dose: 27.0 mg/kg/injection, schedule: Q04DX003 (ip), vehicle: saline sonified) 109 % of control.

In the case of `CC(=O)Nc1nc(C)c(CCCOc2ccc([N+](=O)[O-])cc2)c(=O)[nH]1`, the T/C reads like this: (dose: 60.0 mg/kg/injection, schedule: Q01DX005 (ip), vehicle: Klucel (hydroxypropylcellulose) (HPC)) 86 % of control; (dose: 120.0 mg/kg/injection, schedule: Q01DX005 (ip), vehicle: Klucel (hydroxypropylcellulose) (HPC)) 86 % of control.

Regarding `CS[P+]1(C)C=C(N2CCOCC2)CC1` (centres undefined), the T/C by setting is: (dose: 50.0 mg/kg/injection, schedule: Q01DX009 (ip), vehicle: saline) 101 % of control; (dose: 100.0 mg/kg/injection, schedule: Q01DX009 (ip), vehicle: saline) 96 % of control; (dose: 200.0 mg/kg/injection, schedule: Q01DX009 (ip), vehicle: saline) 96 % of control.

For the molecule `Nc1ncc([N+](=O)[O-])c(Cl)n1`, the T/C reads like this: under setting [2], 105 % of control; under setting [3], 105 % of control; (dose: 50.0 mg/kg/injection, schedule: Q01DX009 (ip), vehicle: saline with Tween-80) 105 % of control.

In the case of `O=C(NC(CO)C(=O)O)C(Cl)Cl` (centres undefined), the T/C is 101 % of control under setting [4], 95 % of control under setting [5] and 101 % of control under setting [6].

Regarding `Cc1cccc(CSCc2c(CSCc3cccc(C)c3)c(CSCc3cccc(C)c3)c(CSCc3cccc(C)c3)c(CSCc3cccc(C)c3)c2CSCc2cccc(C)c2)c1`, the T/C is, setting by setting: (dose: 100.0 mg/kg/injection, schedule: Q01DX001 (ip), vehicle: saline with Tween-80) 114 % of control; (dose: 200.0 mg/kg/injection, schedule: Q01DX001 (ip), vehicle: saline with Tween-80) 105 % of control; (dose: 400.0 mg/kg/injection, schedule: Q01DX001 (ip), vehicle: saline with Tween-80) 101 % of control.

On to `CC(SC(C)C(=O)O)C(=O)O` (centres undefined), for which the T/C is, setting by setting: (dose: 100.0 mg/kg/injection, schedule: Q04DX002 (ip), vehicle: saline) 97 % of control; (dose: 200.0 mg/kg/injection, schedule: Q04DX002 (ip), vehicle: saline) 109 % of control.

`COC(=O)/C(O)=C(/O)C(=O)OC`: the T/C is 99 % of control under setting [7], 100 % of control under setting [8] and 99 % of control under setting [9].

For the molecule `[Cl][Sn]1([Cl])[CH2]CCCCCCCCCC[CH2][Sn]([Cl])([Cl])[CH2]CCCCCCCCCC[CH2]1`, the T/C was 100 % of control under setting [7]; 86 % of control and 96 % of control under setting [8]; 91 % of control under setting [9].

As to `COC(CCC1N=C1c1ccccc1)OC` (centres undefined), the T/C by setting is: (dose: 100.0 mg/kg/injection, schedule: Q04DX002 (ip), vehicle: saline with Tween-80) 105 % of control; (dose: 200.0 mg/kg/injection, schedule: Q04DX002 (ip), vehicle: saline with Tween-80) 102 % of control; (dose: 400.0 mg/kg/injection, schedule: Q04DX002 (ip), vehicle: saline with Tween-80) 102 % of control.

`Oc1cc2c3c(c1)c1cc4c(cc1c[n+]3CC2)OCO4`: the T/C is, setting by setting: (dose: 6.25 mg/kg/injection, schedule: Q01DX009 (ip), vehicle: other) 151 % of control; (dose: 10.0 mg/kg/injection, schedule: Q01DX005 (ip), vehicle: acid diluted with saline) 119 % of control; (dose: 12.5 mg/kg/injection, schedule: Q01DX009 (ip), vehicle: other) 155 % of control; (dose: 20.0 mg/kg/injection, schedule: Q01DX005 (ip), vehicle: acid diluted with saline) 119 % of control; (dose: 25.0 mg/kg/injection, schedule: Q01DX009 (ip), vehicle: other) 164 % of control.

As for `COC1OC2COC(c3ccccc3)OC2C(OS(=O)(=O)c2ccc(C)cc2)C1OS(=O)(=O)c1ccc(C)cc1` (centres undefined), the T/C is 114 % of control (dose: 6.25 mg/kg/injection, schedule: Q01DX009 (ip), vehicle: saline with Tween-80); 114 % of control under setting [2]; 108 % of control and 111 % of control under setting [3]; 87 % of control (dose: 100.0 mg/kg/injection, schedule: Q01DX009 (ip), vehicle: saline with Tween-80); 91 % of control (dose: 200.0 mg/kg/injection, schedule: Q01DX009 (ip), vehicle: saline with Tween-80).

Consider `Cc1cc(C(=O)O)sn1`, for which the T/C is, setting by setting: (dose: 3.12 mg/kg/injection, schedule: Q01DX009 (ip), vehicle: saline) 100 % of control; under setting [1], 100 % of control; (dose: 12.5 mg/kg/injection, schedule: Q01DX009 (ip), vehicle: saline) 96 % of control; (dose: 25.0 mg/kg/injection, schedule: Q01DX009 (ip), vehicle: saline) 100 % of control.

Take `Cc1cccc(N=Nc2ccc(N=Nc3c(O)ccc4ccccc34)cc2C)c1`: the T/C was 97 % of control under setting [10]; 100 % of control under setting [11]; 100 % of control (dose: 200.0 mg/kg/injection, schedule: Q01DX009 (ip), vehicle: Klucel (hydroxypropylcellulose) (HPC)).

In the case of `CC1(C)OC(CP(=O)(c2ccccc2)c2ccccc2)C(CP(=O)(c2ccccc2)c2ccccc2)O1` (centres undefined), the T/C was 97 % of control under setting [4], 97 % of control under setting [5] and 94 % of control under setting [6].

Consider `CCCCCN(CCCCC)CC(=O)c1ccc2cc(Br)c3ccccc3c2c1`, for which the T/C under setting [7] was 104 % of control, the T/C under setting [8] was 101 % of control and the T/C under setting [9] is 108 % of control.

For the molecule `COC(=N)CCCCC(=N)OC`, the T/C is, setting by setting: (dose: 50.0 mg/kg/injection, schedule: Q01DX005 (ip), vehicle: saline) 92 % of control; (dose: 100.0 mg/kg/injection, schedule: Q01DX005 (ip), vehicle: saline) 97 % of control; (dose: 200.0 mg/kg/injection, schedule: Q01DX005 (ip), vehicle: saline) 101 % of control.

For the molecule `COc1ccc(C2=C(Cl)C(=O)N(c3ccc(OC)cc3)C(=O)C2(Cl)Cl)cc1`, the T/C reads like this: (dose: 100.0 mg/kg/injection, schedule: Q04DX002 (ip), vehicle: Klucel (hydroxypropylcellulose) (HPC)) 101 % of control; (dose: 200.0 mg/kg/injection, schedule: Q04DX002 (ip), vehicle: Klucel (hydroxypropylcellulose) (HPC)) 95 % of control; (dose: 400.0 mg/kg/injection, schedule: Q04DX002 (ip), vehicle: Klucel (hydroxypropylcellulose) (HPC)) 111 % of control.

In the case of `CC(C)(C)COSc1ccccc1`, the T/C (dose: 100.0 mg/kg/injection, schedule: Q04DX003 (ip), vehicle: saline with Tween-80) is 106 % of control.

As for `CN(C)CCCNc1ccc2ccc3c(NCCCN(C)C)ccc4ccc1c2c43`, the T/C reads like this: (dose: 12.5 mg/kg/injection, schedule: Q01DX009 (ip), vehicle: Klucel (hydroxypropylcellulose) (HPC)) 99 % of control; (dose: 25.0 mg/kg/injection, schedule: Q01DX009 (ip), vehicle: Klucel (hydroxypropylcellulose) (HPC)) 102 % of control; under setting [10], 99 % of control and 112 % of control; under setting [11], 103 % of control.

For the origin of these results see PubChem BioAssay AID330 (DTP/NCI, 2004).
